Assay results from PubChem BioAssay (NCI).
Several values for one entry are separate records, joined by “and”; a condition that tells them apart may be missing. Equal entries are not always repeated.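 Interpolation was linear, between the two tested concentrations surrounding the appropriate level; five concentrations were tested over 48 hours in 96-well plates. Here, GI50 denotes the concentration required for 50% inhibition of growth. The concentration for full growth arrest is given as TGI.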

Columns and labels:
Test in all cases: NCI tumour cell line growth inhibition, 48 h
MALME-3M melanoma = tested on: MALME-3M melanoma
HCT-15 colon = tested on: HCT-15 colon
COLO 205 colon = tested on: COLO 205 colon
786-0 renal = tested on: 786-0 renal
SN12C renal = tested on: SN12C renal
SK-MEL-28 melanoma = tested on: SK-MEL-28 melanoma
HCT-116 colon = tested on: HCT-116 colon
A549 NSCLC = tested on: A549 NSCLC
SW-620 colon = tested on: SW-620 colon
RPMI-8226 leukemia = tested on: RPMI-8226 leukemia

SMILES | GI50 (MALME-3M melanoma) | TGI (MALME-3M melanoma) | GI50 (HCT-15 colon) | TGI (HCT-15 colon) | GI50 (COLO 205 colon) | TGI (COLO 205 colon) | TGI (786-0 renal) | TGI (SN12C renal) | GI50 (SK-MEL-28 melanoma) | TGI (SK-MEL-28 melanoma) | GI50 (HCT-116 colon) | TGI (HCT-116 colon) | TGI (A549 NSCLC) | TGI (SW-620 colon) | GI50 (RPMI-8226 leukemia) | TGI (RPMI-8226 leukemia) | GI50 (786-0 renal) | GI50 (SN12C renal) | GI50 (A549 NSCLC) | GI50 (SW-620 colon)
CCc1c2c(nc3cc4c(cc13)OCO4)-c1cc3c(c(=O)n1C2)COC(=O)[C@]3(O)CC | 0.289 µM | > 100 µM | 0.182 µM and 0.137 µM | > 100 µM | 1.17 µM | > 100 µM | > 100 µM | > 100 µM | 0.764 µM and 1.14 µM | > 100 µM | 1.31 µM | > 100 µM | 2.08 µM | > 100 µM | 0.00315 µM | 0.391 µM |  |  |  | 
CCOc1ccc(S(=O)(=O)/N=C2\C=C(SCC(=O)O)C(=O)c3ccccc32)cc1 | 2.13 µM | 3.69 µM | 4.77 µM | 17.2 µM | 3.68 µM | 14 µM | 36 µM | 4.97 µM | 4.74 µM | 16.3 µM | 2.67 µM | 10.3 µM | 34.9 µM | 11.1 µM | 2.05 µM | 13.2 µM | 17.4 µM | 2.15 µM | 12.6 µM | 3.31 µM
Fc1cccc(COc2ccc(Nc3ncncc3C#Cc3ccccc3)cc2Cl)c1 | > 25 µM | > 25 µM | > 25 µM | > 25 µM | > 25 µM | > 25 µM | > 25 µM | > 25 µM | > 25 µM | > 25 µM | 24.4 µM | > 25 µM | > 25 µM | > 25 µM | > 25 µM | > 25 µM | > 25 µM | > 25 µM | > 25 µM | > 25 µM
NC(CO)Cc1cnc[nH]1 (stereo unspecified) | > 100 µM | > 100 µM | > 100 µM | > 100 µM | > 100 µM | > 100 µM | > 100 µM | > 100 µM | > 100 µM | > 100 µM | > 100 µM | > 100 µM | > 100 µM | > 100 µM | > 100 µM | > 100 µM | > 100 µM | > 100 µM | > 100 µM | > 100 µM
Cc1ccc(-c2c(N)nc(NC#N)nc2CCC(=O)Nc2ccccc2[N+](=O)[O-])cc1 |  | > 100 µM |  | > 100 µM |  | > 100 µM | > 100 µM | > 100 µM |  | > 100 µM |  | > 100 µM | > 100 µM | > 100 µM |  | > 100 µM |  |  |  | 
N#CC(=C1SCS1)[N+](=O)[O-] | 3.21 µM | 18.1 µM | 0.853 µM | 9.56 µM | 1.41 µM | 3.92 µM | 14 µM | 18.4 µM | 3.59 µM | 15.1 µM | 0.346 µM | 10.3 µM | 40.6 µM | 6.47 µM | 0.678 µM | 4.06 µM | 3.12 µM | 4.35 µM | 4 µM | 0.454 µM
COc1cc2c(c3c1C=CCO3)C(=O)c1ccccc1C2=O |  | > 100 µM |  | > 100 µM |  | 39.8 µM | > 100 µM | > 100 µM |  | > 100 µM |  | > 100 µM | > 100 µM | 97.9 µM |  | > 100 µM |  |  |  | 
